Laboratory results from patent US20160166701A1, “DELIVERY COMPOSITION FOR TOPICAL APPLICATIONS AND INJECTIONS AND OPHTHALMIC FORMULATIONS, METHODS FOR MANUFACTURING THEREOF, AND METHODS FOR DELIVERY OF A DRUG-DELIVERY COMPOSITION” (THERAKINE BIODELIVERY GMBH, priority 2013, published 2016).

Experiments:
[1] = system: rabbits undergoing photorefractive keratectomy (PRK) surgery; experiment: Rabbit PRK study of canakinumab incorporated in the matrix formulation (Example 3); type: in vivo
Protocol: In Example 3, a further rabbit study, similar to the design of Example 2 above, was performed using Novartis's canakinumab, a fully human antibody against Il-1 beta, incorporated in the matrix formulation using hyaluronic acid microparticles enhancing corneal adherence.
Even though it is described that canakinumab does differ from rabbit IL-1 in one amino acid, this study was performed to study the adherence characteristics, pk, and safety/tolerability of EpiKine delivering a different Il-1 inhibitor.

[2] = system: rabbits undergoing photorefractive keratectomy (PRK) surgery; experiment: Rabbit photorefractive keratectomy (PRK) study of matrix formulation with IL-1ra versus steroid control (Example 2); type: in vivo; conditions: lower doses of IL-1ra and steroid group compared with higher dose of IL-1ra and control group, week 3; FIG. 6
Protocol: In Example 2; various concentrations of IL-1ra, i.e. 50 mg/ml or 2.5 mg/drop, 25 mg/ml or 1.25 mg/drop, and 5 mg/ml or 0.25 mg/drop (solutions A-C), were compared to a standard steroid control (fluorometholone) in rabbits undergoing photorefractive keratectomy (PRK) surgery. […] The final hyaluronic acid concentration (i.e. the hyaluronic acid concentration in the final matrix formulation) was 0.526% w/w, based on the total weight of the matrix formulation.
Each rabbit received PRK in both eyes at a 100 μm ablation depth. In each rabbit, the right eye (OD) served as the treated eye while the left eye (OS) served as control. […]
As before corneal clarity, forward scatter and haze measurement were used as out-come parameters. Haze formation and scattering was assessed via slit lamp exam by an ophthalmologist. The timing for re-epithelization to occur in both the treatment and control groups was measured.
In addition Pentacam technology was used to image the anterior segment of the eye via a rotating Scheimpflug process that supplied pictures in three dimensions, allowing for a precise measurement of the shape, thickness, and the contour of the cornea. Using this method, the center of the cornea, which is most critical for refractive surgery planning, is measured precisely because of this rotational imaging process. […]

[3] = system: rabbits following photorefractive keratectomy (PRK); conditions: rabbit, in vivo; cited from earlier work
[4] = system: freshly isolated and subcultured corneal fibroblasts; experiment: α-SMA positive corneal fibroblasts in normal or serum-free media, confocal microscopy on day 4 (Example 4); type: cell-based, rabbit; conditions: serum-free media, 30 μg/mL, both subcultured and freshly isolated cells
Protocol: Since there is a variable amount of growth factors such as IL-1 in serum, the presence of serum may offset the effect of blocking IL-1 with the matrix formulation. In this experiment, freshly isolated and subcultured corneal fibroblasts (P2-P5) were seeded at a density of 5,000 cells/cm^2 and cultured with 30 μg/mL with human recombinant IL-1ra in either normal (NM) or Serum-Free (SF) media. Cells were analyzed on day 4 for levels of α-SMA with confocal microscopy. Cell numbers in serum-free samples were too low to recover enough protein for Western Blot analysis. 5 individuals independently counted 3 images of each of 3 samples per condition for α-SMA positive cells. Serum-free media induced lower α-SMA expression in freshly isolated cells but had no effect on subcultured cells. […] This finding supports that the phenotype of subcultured cells can be influenced by the matrix formulation.
Percentage of freshly isolated (FI) and subcultured (SC) RCFs expressing α-SMA as determined from confocal immunofluorescence on day 4 in the following conditions: normal media (NM), normal media with IL-1ra (NM+IL-1ra), serum-free (SF), and serum-free with IL-1ra (SF+IL-1ra). SF conditions decreased α-SMA levels in FI but not in SC cells. […] Data represents mean+/−standard error with n=3 (* indicate p<<0.001, θ indicate p<0.05, φ indicate p<0.005).

[5] = every data point, not statistically significant

Compound	objective haze (HRT stromal haze) [1, 5]	epithelial closure ([1]; 1.25 mg concentration, within the canakinumab concentrations)	foam layer thickness (histologic analysis) ([1]; 2.5 mg and 1.25 mg concentration compared to 0.25 mg concentration)	objective haze (Pentacam) densitometry values ([1]; 2.5 mg concentration group, each time point)	corneal haze ([1]; 2.5 mg concentration, almost all data points, not statistically significant)	subjective haze (slit lamp exam) ([1]; 2.5 mg concentration, within the canakinumab concentrations)	objective haze (HRT stromal haze) ([1]; 2.5 mg, compared to control, week 2)	epithelial closure ([1]; all concentrations, compared to steroid and control group, not statistically significant)	adverse events ([1]; any of the concentrations, preliminary results)	subjective haze (slit lamp exam) ([1]; compared to the control group)	safety compared to steroids ([1]; time frame administered in this study)	subjective haze (slit lamp exam) ([1]; weeks 2, 4, 5, not statistically significant)	Pentacam density measurements [2]	serious adverse events such as infections or worsening infections [3]	α-SMA expression [4]
CC(=O)[C@@]1(O)CC[C@H]2[C@@H]3C[C@H](C)C4=CC(=O)C=C[C@]4(C)[C@@]3(F)[C@@H](O)C[C@@]21C [Steroids, fluorometholone, reference compound]	least haze														
canakinumab	less haze than the control group	trend for faster closure	thinner foam layers	trend for lower densitometry values	trend towards lower corneal haze	trend for lower subjective haze values	statistically significant less haze	took longer to heal	No adverse events	as effective as steroids	non-inferior to steroids	lower haze			
IL-1ra: IL-1ra is a biologic agent (protein) that blocks IL-1													statistically significant difference	No serious adverse events	significantly decreased
